Measured values reported in USRE39148E1, “Potentiation of the Microbicide 2-(Thiocyanomethylthio)benzothiazole using an n-alkyl heterocyclic compound” (Buckman Laboratories International, Inc., priority 1995, dated 2006).

Legend:
[1] = system: Sphaerotilus natans, ATCC 15291; test: 18 Hour Stokes Broth Test; assay type: cell-based; details: alone
Description: The bactericidal effects of the combined use of TCMTB and N-alkyl heterocyclic compounds against bacteria were measured using an 18 Hour Stokes Broth Test. Combinations of TCMTB and N-dodecyl morpho line (DDM) and of TCMTB and N-dodecyl imidazole (DDI) were tested against the bacteria Sphaerotilus natans, ATCC 15291. In this test, compound A was Busan® 1030 product, a 30% TCMTB formulation, and compound B was either DDM (99%) or DDI (99%). The Busan® […] product is available from Buckman Laboratories, Memphis, Tenn. The Stokes broth substrate used to evaluate effectiveness of microbicidal compositions against Sphaerotilus natans was prepared by adding the following to one liter of water: [table] The broth was adjusted to pH 7.0 with sodium hydroxide. Forty gram portions were then added to 180 mL Pyrex milk dilution bottles fitted with […] rubber stoppers and then sterilized. Each of the following substances was then added to each bottle in the order listed. • 1. Sterile distilled water as required in each individual case to bring the total weight of the contents of each bottle to 50 g after all subsequent additions specified below (including inoculation with the aqueous suspension of test organism) have been made. • 2. Solution of toxicant or control agent to be evaluated in such individual volumes as to give the concentration desired in parts per million by weight. • 3. One mL of a 24-hour old S. natans culture grown in Stokes broth. After the inoculant suspension of the test organism was added to the bottles they were incubated at 28° C. for 18 hours. After this incubation, a 1 mL of sample was withdrawn from each bottle, diluted, plated on Stokes agar, and incubated for 72-96 hr. at 28-30° C. Stokes agar was prepared like the broth with 12.5 g agar added per liter. The number of colonies on each plate was determined and converted to the count per milliliter of substrate. […] A percentage kill of 90 percent or higher represents an extremely useful bactericidal composition. […] Others may be calculated from the data presented.

[2] = system: Desulfovibrio desulfuricans, ATCC 7757; test: 28 Day API Test; assay type: cell-based; parameters: key: 0=no growth; 4=heavy growth; details: alone
Description: The bactericidal effects of the combined use of TCMTB and N-alkyl heterocyclic compounds against bacteria were measured using an 28 Day API Test. Combinations of TCMTB (compound A) and N-dodecyl morpholine (DDM, compound B) and of TCMTB (compound A) and N-dodecyl imidazole (DDI, compound B) were tested against the bateria Desulfovibrio desulfuricans, ATCC 7757. Busan® 1030 product, a 30% TCMTB formulation, DDM (99%), and DDI (99%) were used in this testing. The Busan® […] product is available from Buckman Laboratories, Memphis Tenn. The medium used was a modified API Broth having the following composition: […] The compounds were dissolved in 1.0 L of deionized water to form the medium. The pH of the medium was adjusted to a final pH of 6.9 with 1 N sodium hydroxide prior to sterilization. The medium was sterilized at 121° C. for 20 minutes and then allowed to cool to room temperature. The medium is then inoculated by adding 10 ml per liter of a 24-hr. broth culture of Desulfovibrio desulfuricans. From stock solutions of the chemicals to be tested, sufficient amounts of the compounds were added to 1 oz. glass bottles so that when a bottle was completely filled, the desired concentration of the chemical was present. The bottles were then completely filled with the inoculated API broth (10 mL innoculum per liter medium) in a manner such as to exclude all air and provide an anaerobic state. The bottles were capped tightly and inverted gently to mix the contents and, at the same time, to make sure no air bubbles were present. Incubation was carried out at 37° C. for 28 days. Growth was indicated by blackening of the culture medium, whereas those bottles having sufficient chemical to inhibit growth would remain clear. Observations of growth were made at the end of 7 days, 14 days, 21 days and 28 days. […] The minimum inhibitory concentration (MIC) was defined as the lowest concentration tested which gave no growth in the bottle (clear liquid). […] Others may be calculated from the data presented.

CCCCCCCCCCCCn1ccnc1 [Dodecyl Imidazole, N-dodecyl imidazole]
% Kill ([1]; Table 3, 1 ppm): 75.1% | CFU/mL ([1]; Table 3, 1 ppm): 1.26 × 10^6 CFU/mL | % Kill ([1]; Table 3, 2 ppm): 86.5% | CFU/mL ([1]; Table 3, 2 ppm): 6.80 × 10^5 CFU/mL | CFU/mL ([1]; Table 3, 5 ppm): <10^3 CFU/mL | CFU/mL ([1]; Table 3, 10 ppm): <10^3 CFU/mL | CFU/mL ([1]; Table 3, 20 ppm): <10^3 CFU/mL | CFU/mL ([1]; Table 3, 50 ppm): <10^3 CFU/mL | CFU/mL ([1]; Table 3, 100 ppm): <10^3 CFU/mL

CCCCCCCCCCCCN1CCOCC1 [Dodecyl Morpholine, N-dodecyl morpholine]
% Kill ([1]; Table 2, 1 ppm): 58.4% | CFU/mL ([1]; Table 2, 1 ppm): 1.58 × 10^6 CFU/mL | % Kill ([1]; Table 2, 2 ppm): 67.4% | CFU/mL ([1]; Table 2, 2 ppm): 1.24 × 10^6 CFU/mL | % Kill ([1]; Table 2, 5 ppm): 77.6% | CFU/mL ([1]; Table 2, 5 ppm): 8.51 × 10^5 CFU/mL | CFU/mL ([1]; Table 2, 10 ppm): <10^3 CFU/mL | CFU/mL ([1]; Table 2, 20 ppm): <10^3 CFU/mL | growth, Day 7 ([2]; Table 4, 10 ppm): 4 | growth, Day 14 ([2]; Table 4, 10 ppm): 4 | growth, Day 21 ([2]; Table 4, 10 ppm): 4 | growth, Day 28 ([2]; Table 4, 10 ppm): 4 | growth, Day 7 ([2]; Table 4, 20 ppm): 4 | growth, Day 14 ([2]; Table 4, 20 ppm): 4 | growth, Day 21 ([2]; Table 4, 20 ppm): 4 | growth, Day 28 ([2]; Table 4, 20 ppm): 4 | growth, Day 7 ([2]; Table 4, 40 ppm): 2 | growth, Day 14 ([2]; Table 4, 40 ppm): 3 | growth, Day 21 ([2]; Table 4, 40 ppm): 4 | growth, Day 28 ([2]; Table 4, 40 ppm): 4 | growth, Day 7 ([2]; Table 4, 80 ppm): 0 | growth, Day 14 ([2]; Table 4, 80 ppm): 1 | growth, Day 21 ([2]; Table 4, 80 ppm): 3 | growth, Day 28 ([2]; Table 4, 80 ppm): 4 | growth, Day 7 ([2]; Table 4, 160 ppm): 0 | growth, Day 14 ([2]; Table 4, 160 ppm): 0 | growth, Day 21 ([2]; Table 4, 160 ppm): 2 | growth, Day 28 ([2]; Table 4, 160 ppm): 3 | growth, Day 7 ([2]; Table 4, 320 ppm): 0 | growth, Day 14 ([2]; Table 4, 320 ppm): 0 | growth, Day 21 ([2]; Table 4, 320 ppm): 0 | growth, Day 28 ([2]; Table 4, 320 ppm): 0 | growth, Day 7 ([2]; Table 5, 1 ppm): 4 | growth, Day 14 ([2]; Table 5, 1 ppm): 4 | growth, Day 21 ([2]; Table 5, 1 ppm): 4 | growth, Day 28 ([2]; Table 5, 1 ppm): 4 | growth, Day 7 ([2]; Table 5, 2 ppm): 4 | growth, Day 14 ([2]; Table 5, 2 ppm): 4 | growth, Day 21 ([2]; Table 5, 2 ppm): 4 | growth, Day 28 ([2]; Table 5, 2 ppm): 4 | growth, Day 7 ([2]; Table 5, 4 ppm): 4 | growth, Day 14 ([2]; Table 5, 4 ppm): 4 | growth, Day 21 ([2]; Table 5, 4 ppm): 4 | growth, Day 28 ([2]; Table 5, 4 ppm): 4 | growth, Day 7 ([2]; Table 5, 8 ppm): 2 | growth, Day 14 ([2]; Table 5, 8 ppm): 4 | growth, Day 28 ([2]; Table 5, 8 ppm): 4 | growth, Day 7 ([2]; Table 5, 16 ppm): 0 | growth, Day 14 ([2]; Table 5, 16 ppm): 0 | growth, Day 21 ([2]; Table 5, 16 ppm): 0 | growth, Day 28 ([2]; Table 5, 16 ppm): 0 | growth, Day 7 ([2]; Table 5, 32 ppm): 0 | growth, Day 14 ([2]; Table 5, 32 ppm): 0 | growth, Day 28 ([2]; Table 5, 32 ppm): 0
